Assays:
[1] = test system: APP holoprotein; test: Cell-associated APP holoprotein in cultured astrocytes (Western blot); assay type: cell-based, rat; parameters: basal APPh levels (compound by itself): unit of the concentration uncertain
Method: (§1) Astrocytes are isolated from cortices from postnatal rats by methods standard in the art. In brief, dissected cortices are dissociated by trypsinization and trituration through a flame-polished Pasteur pipette. Cells are plated onto poly-L-lysine coated 35- or 100 mm culture dishes at densities of about 10-25 cells/mm^2. The initial culture media, minimal essential medium (MEM, Gibco) containing 10% horse serum (BioWhittaker), are aspirated after 2-5 h after plating to remove unattached cells and debris, and replaced with MEM containing 7.5% fetal bovine serum (FBS, BioWhittaker). Half the media is replaced with MEM/7.5% FBS twice weekly. Cells are kept at 37° C. in a humidified 5% CO2/95% air incubator. Media are changed twice weekly. […] Pharmacological manipulations are performed in serum-free media on 7-14 DIV confluent astrocytes.
To detect cell-associated proteins (APP or GFAP), astrocytes from 35 mm dishes are scraped into lysis buffer (60 mm Tris/HCl, 4% SDS, 20% glycerol, 1 mm dithiothreitol), ultrasonicated and boiled for […]. The total amount of cell protein per dish, estimated using the bicinchoninic acid assay, is not altered by pharmacological treatments. Bromphenol blue (0.1%) is added to each sample and equal amounts of protein ([…]) are loaded on 10% SDS polyacrylamide gels.
The amount of media or cell protein loaded for sodium dodecyl sulfate-polyacrylamide gel electrophoresis (10-20% SDS PAGE; Bio-Rad) is normalized for the amount of protein per sample. Proteins (equivalent to 100 μg cell protein/lane) are separated by electrophoresis, electroblotted onto polyvinylidene difluoride membranes (Immobilon-P, Millipore) and blocked in Tris-buffered saline with 0.15% Tween 20 (TEST) containing 5% powdered milk for 30 min. After 2×10 mm rinses in TBST, the membranes are incubated in TEST containing an appropriate antibody. Monoclonal antibodies 22C11 and GFAP (both from Boehringer Mannheim) are used to detect the N-terminus of APP and glial fibrillary acidic protein respectively; antisera R37 and R98 (gifts of Dr. F. Kametani, Tokyo Institute of Psychiatry) are used to detected the C-terminus and KPI motifs of APP respectively; antiserum C8 (gift of Dr. D. Selkoe, Women's Hospital, Harvard Medical School, Cambridge, Mass.) is used to detect the C-terminus of APP.
After an overnight incubation, membranes are rinsed in TBST then treated for 1 h with a peroxidase-linked secondary antibody. After several rinses in TEST, protein bands are visualized on Kodak X-AR films by an enhanced chemiluminescence method (Amersham). Optical densities of the protein bands are quantitated by laser scanning densitometry (LICE, Bromma, Sweden), and normalized to the densities of those bands generated under control conditions.
Measurements of cellular and secreted proteins, or of mRNA in treatment groups are normalized against those of control groups which are prepared in parallel and loaded onto the same blot. Analysis of variance (ANOVA) and t-tests are used to evaluate differences between groups (significance level, p=0.05), using drug treatments as the independent variable.

[2] = test system: cAMP; test: PGE2-induced cAMP increases in 10-day old rat cortical neurons; assay type: cell-based; parameters: effect on basal cAMP levels: unit of the concentration uncertain; settings: for effect on basal cAMP levels: no PGE2, cortical neurons; for effect on PGE2-stimulated cAMP levels: cortical neurons
Method: FIG. 5. Effect of Cannabinoids on Prostaglandin E2-Induced cAMP Increases in 10-Day Old Rat Cortical Neurons.
Levels of cyclic AMP are measured with an [8-^3H]-cAMP assay kit (Amersham TRK 432) in astrocytes grown on 35 mm dishes. In brief, after aspirating the medium and rinsing twice with 1 ml ice cold PBS, the cells are scraped in 0.8 mL ice cold ethanol and sonicated. The cell suspension is incubated for […] at room temperature, centrifuged and the supernatant is dried in a rotary evaporator. After resuspension in 120 μL Tris/EDTA buffer, two duplicate samples of 50 μl each are mixed with the binding protein, [8-^3H] adenosine 3′,5′-cyclic phosphate tracer and incubated at 2-4° C. for 2 h. A charcoal suspension (100 μL) is added to the samples before centrifugation and 200 μL of the supernatant is removed for scintillation counting. The amount of cyclic AMP (pmol/mg protein) is estimated by comparing to known standards, and normalized to the amounts of whole cell protein as determined by the bicinchoninic acid assay (Sigma).
Referring now to FIG. 5, cell cultures of 10-day old cortical neurons are used to assess the affect of anandamide (50 M), methanandamide (10 M), and 2-AG (50 M) on PGE2-stimulated cAMP levels. PGE2 (50 M) is found to elevate cAMP levels about 1.6-fold over basal (control).

[3] = test system: APP mRNA; test: APP mRNA levels in cultured astrocytes (Northern blot); assay type: cell-based, rat; settings: 1, 10 or 100 μM, 24 h
Method: as §1
Total RNA from astrocytes grown on 100 mm dishes is extracted by the acid guanidium thiocyanate-phenol chloroform method. […] The levels of APP mRNA are normalized to the amounts of G3PDH mRNA and expressed as a ratio to the levels of untreated, control cells.
Confluent monolayers of astrocytes prepared according to Example 8.1 are treated with serum-free media containing 50, 100, or 250 μM 8Br-cAMP for varying durations (1 h, 6 h, 12 h, or 24 h). Levels of cAMP in astrocytes are measured with a [8-^3H]-cAMP assay kit (Amersham TRK 432).

[4] = test system: soluble APP (APPs); test: Secreted soluble APP in astrocyte culture media (Western blot); assay type: cell-based, rat; settings: astrocytes
Method: as §1
To detect secreted APP, culture media is collected after drug treatments and phenylmethylsulfonyl fluoride is added to a final concentration of 2 mM. The media samples are then applied to Sephadex PD-b desalting columns (Pharmacia) and eluted with distilled water. […]
The amount of media or cell protein loaded for sodium dodecyl sulfate-polyacrylamide gel electrophoresis (10-20% SDS PAGE; Bio-Rad) is normalized for the amount of protein per sample. […] Monoclonal antibodies 22C11 and GFAP (both from Boehringer Mannheim) are used to detect the N-terminus of APP and glial fibrillary acidic protein respectively; antisera R37 and R98 (gifts of Dr. F. Kametani, Tokyo Institute of Psychiatry) are used to detected the C-terminus and KPI motifs of APP respectively; antiserum C8 (gift of Dr. D. Selkoe, Women's Hospital, Harvard Medical School, Cambridge, Mass.) is used to detect the C-terminus of APP.
After an overnight incubation, membranes are rinsed in TBST then treated for 1 h with a peroxidase-linked secondary antibody. […] Optical densities of the protein bands are quantitated by laser scanning densitometry (LICE, Bromma, Sweden), and normalized to the densities of those bands generated under control conditions. […]

[5] = test system: Abeta; test: Total Abeta media concentration in CHO cells transfected with human APP gene construct; assay type: cell-based, Chinese Hamster; parameters: unit of the concentration uncertain
Source text: FIG. 3. Effect of Varying Concentrations of Resveratrol on Total Abeta Media Concentration in CHO Cells Transfected with Human APP Gene Construct at Four Hours.

SMILES: CCCCC/C=C\C/C=C\C/C=C\C/C=C\CCCC(=O)N[C@H](C)CO [Methanandamide, methanandamide]
- effect on PGE2-stimulated APPh levels ([1]; 10 M methanandamide compared with 50 μM anandamide, cultured astrocytes): more efficacious than anandamide
- effect on basal cAMP levels ([2]; 10 (unit uncertain)): no effect on basal levels
- effect on PGE2-stimulated cAMP levels ([2]; 10 M with PGE2 50 M): inhibit the PGE2-induced increase in cAMP levels

SMILES: CCCCC[C@H](O)/C=C/[C@H]1[C@H](O)CC(=O)[C@@H]1C/C=C\CCCC(=O)O [PGE2, prostaglandin E2]
- amounts of astrocytic APP mRNA (4.5 kb) relative to untreated cells [3]: significantly increases
- increase in APPh levels compared to controls ([1]; 50 μM prostaglandin E2 alone, cultured astrocytes, two experiments): ~75%
- increase in APPh levels ([1]; PGE2 alone, cultured astrocytes (FIG. 4)): three-fold
- cAMP levels over basal (control) ([2]; PGE2 50 M alone, 10-day old cortical neurons): about 1.6 fold
- APP secreted in the media (110-130 kD) ([4]; 1, 10 or 100 μM, 24 h): also increased

SMILES: Cc1c(C(=O)c2cccc3ccccc23)c2cccc3c2n1[C@H](CN1CCOCC1)CO3 [WIN55212-2]
- effect on APPh levels in the absence of PGE2 ([1]; 100 µM, cultured astrocytes): no statistically significant effect
- increase in APPh levels with PGE2 stimulation ([1]; WIN55212-2 100 M added to PGE2, cultured astrocytes): limited to two-fold

SMILES: CCCCC/C=C\C/C=C\C/C=C\C/C=C\CCCC(=O)NCCO [anandamide]
- increase in APPh levels over control in presence of PGE2 ([1]; 50 μM anandamide with 50 μM prostaglandin E2, cultured astrocytes): about 55%
- basal APPh levels (compound by itself) ([1]; 50 µM, without PGE2, cultured astrocytes): reduce APPh levels below control values
- effect on PGE2-stimulated cAMP levels ([2]; 50 µM with PGE2 50 M): suppress the PGE2-induced stimulation
- effect on basal cAMP levels ([2]; 50 (unit uncertain)): no effect on basal levels

SMILES: Oc1ccc(C=Cc2cc(O)cc(O)c2)cc1 [resveratrol]
- decrease in APP holoprotein ([1]; 10 μM (so in the source) and intermediate concentrations, one hour, astrocytes, p<0.05): significant decrease
- levels of cellular amyloidogenic APP holoprotein ([1]; 10 μM and higher, one hour, astrocytes, p<0.05): decreased to about half
- Abeta levels in the media ([5]; 100 (unit uncertain), four-hour treatment): decrease to about half
- Abeta levels in the media ([5]; lower concentrations (0.1, 1.0, 10 (unit uncertain)), four hours): not to differ from control
- stimulation of APPs ([4]; 10 nM and intermediate concentrations, one hour): Significant stimulation
- formation of soluble APP (APPs) over control ([4]; 10 μM and higher, one hour, average of four experiments, p<0.05): about two-fold over control
